Measurements taken from US20250144067A1, “PERSONALIZED STARVATION THERAPY FOR CANCER” (Faeth Therapeutics, Inc., priority 2021, published 2025).

What follows are substances tested on NCI-H292 lung cancer cells (assay: FDA drug screening, complete media vs cholesterol-free media without statin (TABLE 1)). Conditions: Complete minus Cholesterol-free; greater than 0 enhanced anti-cancer activity, about 0 neutral, below 0 antagonist.
Type: cell-based, human

| Substance | Difference |
| --- | --- |
| Deferoxamine (mesylate) | −0.12 |
| Delavirdine (mesylate) | −0.10 |
| Econazole (nitrate) | −0.13 |
| Fenoldopam (mesylate) | −0.12 |
| Fluvoxamine (maleate) | −0.11 |
| Gabexate (mesylate) | −0.15 |

Same assay, conditions: Complete minus Cholesterol-free; greater than 0 enhanced anti-cancer activity, about 0 neutral, below 0 antagonists

| Substance | Difference |
| --- | --- |
| Danofloxacin (mesylate) | −0.77 |
| Doxazosin (mesylate) | −0.61 |
| Eprosartan (mesylate) | −0.55 |
| Flupirtine (Maleate) | −0.56 |

Same assay, conditions: NCI-H292 cells in cholesterol-free media without statin

| Substance | Cholesterol-free |
| --- | --- |
| Danofloxacin (mesylate) | 1.786 |
| Doxazosin (mesylate) | 1.69 |
| Eprosartan (mesylate) | 1.415 |
| Flupirtine (Maleate) | 1.589 |

Same assay, conditions: NCI-H292 cells in complete media

| Substance | Complete |
| --- | --- |
| Danofloxacin (mesylate) | 1.013 |
| Doxazosin (mesylate) | 1.083 |
| Eprosartan (mesylate) | 0.8697 |

Same assay, conditions: NCI-H292 cells, FDA drug library screen, cholesterol-free media without statin

| Substance | Cholesterol-free |
| --- | --- |
| Deferoxamine (mesylate) | 0.9976 |
| Delavirdine (mesylate) | 1.071 |
| Econazole (nitrate) | 0.9667 |
| Fenoldopam (mesylate) | 0.8131 |
| Fluvoxamine (maleate) | 1.142 |
| Gabexate (mesylate) | 1.126 |

Same assay, conditions: NCI-H292 cells, FDA drug library screen, complete media

| Substance | Complete |
| --- | --- |
| Deferoxamine (mesylate) | 0.8739 |
| Delavirdine (mesylate) | 0.9729 |
| Econazole (nitrate) | 0.8375 |
| Fenoldopam (mesylate) | 0.6882 |
| Gabexate (mesylate) | 0.973 |

Same assay, conditions: NCI-H292 cells, cholesterol-free media without statin

| Substance | Cholesterol-free |
| --- | --- |
| Diethylcarbamazine (citrate) | 1.324 |
| Dimenhydrinate | 1.237 |
| Enalapril (maleate) | 1.397 |
| Garenoxacin (Mesylate hydrate) | 1.769 |

Same assay, conditions: NCI-H292 cells, cholesterol-free media without statin, FDA drug library screen

| Substance | Cholesterol-free |
| --- | --- |
| Dabrafenib (Mesylate) | 0.4044 |
| Edoxaban (tosylate monohydrate) | 0.765 |
| Fenticonazole (Nitrate) | 0.9899 |
| Flecainide (acetate) | 0.7015 |

Same assay, conditions: NCI-H292 cells, complete media

| Substance | Complete |
| --- | --- |
| Diethylcarbamazine (citrate) | 0.9451 |
| Dimenhydrinate | 0.8523 |
| Garenoxacin (Mesylate hydrate) | 1.3 |

Same assay, conditions: NCI-H292 cells, complete media, FDA drug library screen

| Substance | Complete |
| --- | --- |
| Dabrafenib (Mesylate) | 0.6337 |
| Edoxaban (tosylate monohydrate) | 0.9385 |
| Flecainide (acetate) | 1.125 |

Same assay, conditions: complete vs cholesterol-free media; >0 enhanced anti-cancer activity, about 0 neutral, <0 antagonist

| Substance | Difference |
| --- | --- |
| Fenticonazole (Nitrate) | 0.08 |
| Flecainide (acetate) | 0.42 |

Same assay, conditions: complete vs cholesterol-free media; […]

| Substance | Difference |
| --- | --- |
| Colistin (sulfate) | 0.08 |
| Dabrafenib (Mesylate) | 0.23 |
| Edoxaban (tosylate monohydrate) | 0.17 |

Same assay, conditions: complete vs cholesterol-free media; greater than 0 enhanced anti-cancer activity, about 0 neutral, below 0 antagonists

| Substance | Difference |
| --- | --- |
| Diethylcarbamazine (citrate) | −0.38 |
| Dimenhydrinate | −0.39 |
| Enalapril (maleate) | −0.34 |
| Garenoxacin (Mesylate hydrate) | −0.47 |

What follows are substances tested on NCI-H292 lung cancer cells (assay: FDA drug screening, complete media vs cholesterol-free media with simvastatin (TABLE 2)). Conditions: NCI-H292 cells, FDA drug library screen, cholesterol-free media with simvastatin 0.04 μM.
Type: cell-based, human

| Substance | Cholesterol-free media + simvastatin (0.04 μM) |
| --- | --- |
| Dabrafenib (Mesylate) | 0.4336 |
| Econazole (nitrate) | 0.1971 |
| Enalapril (maleate) | 1.132 |
| Fenticonazole (Nitrate) | 0.6564 |
| Flecainide (acetate) | 1.399 |

Same assay, conditions: NCI-H292 cells, FDA drug library screen, complete media

| Substance | Complete Media |
| --- | --- |
| Dabrafenib (Mesylate) | 0.6478 |
| Enalapril (maleate) | 1.317 |
| Fenticonazole (Nitrate) | 1.167 |
| Flecainide (acetate) | 2.119 |

Same assay, conditions: NCI-H292 cells, FDA library drug in cholesterol-free media with simvastatin 0.04 μM

| Substance | Cholesterol-free media + simvastatin (0.04 μM) |
| --- | --- |
| Deferoxamine (mesylate) | 1.454 |
| Doxazosin (mesylate) | 1.325 |

Same assay, conditions: NCI-H292 cells, FDA library drug in complete media

| Substance | Complete Media |
| --- | --- |
| Doxazosin (mesylate) | 0.9839 |

Same assay, conditions: NCI-H292 cells, cholesterol-free media with simvastatin 0.04 μM; FDA drug library screen (TABLE 2)

| Substance | Cholesterol-free media + simvastatin (0.04 μM) |
| --- | --- |
| Eprosartan (mesylate) | 0.8775 |
| Fluvoxamine (maleate) | 0.9929 |

Same assay, conditions: NCI-H292 cells, cholesterol-free media with simvastatin 0.04 μM; cell growth value in FDA drug screen

| Substance | Cholesterol-free media + simvastatin (0.04 μM) |
| --- | --- |
| Danofloxacin (mesylate) | 0.9788 |
| Delavirdine (mesylate) | 0.9532 |
| Diethylcarbamazine (citrate) | 0.703 |
| Dimenhydrinate | 0.8945 |
| Flupirtine (Maleate) | 0.9024 |

Same assay, conditions: NCI-H292 cells, complete media; FDA drug library screen (TABLE 2)

| Substance | Complete Media |
| --- | --- |
| Eprosartan (mesylate) | 0.8724 |
| Fluvoxamine (maleate) | 0.9426 |

Same assay, conditions: NCI-H292 cells, complete media; cell growth value in FDA drug screen

| Substance | Complete Media |
| --- | --- |
| Danofloxacin (mesylate) | 1.081 |
| Diethylcarbamazine (citrate) | 0.7247 |
| Dimenhydrinate | 0.9753 |
| Flupirtine (Maleate) | 0.9412 |

Same assay, conditions: NCI-H292 cells, drug in cholesterol-free media with simvastatin 0.04 μM

| Substance | Cholesterol-free media + simvastatin (0.04 μM) |
| --- | --- |
| Colistin (sulfate) | 1.189 |
| Edoxaban (tosylate monohydrate) | 1.271 |
| Fenoldopam (mesylate) | 1.028 |
| Gabexate (mesylate) | 1.435 |
| Garenoxacin (Mesylate hydrate) | 1.436 |

Same assay, conditions: NCI-H292 cells, drug in complete media

| Substance | Complete Media |
| --- | --- |
| Colistin (sulfate) | 0.9801 |
| Edoxaban (tosylate monohydrate) | 1.053 |
| Fenoldopam (mesylate) | 0.7708 |
| Gabexate (mesylate) | 1.185 |
| Garenoxacin (Mesylate hydrate) | 1.268 |

Same assay, conditions: complete media minus cholesterol-free media + simvastatin (0.04 μM); >0 enhanced anti-cancer activity, about 0 neutral, <0 antagonist

| Substance | Difference |
| --- | --- |
| Eprosartan (mesylate) | −0.01 |
| Fluvoxamine (maleate) | −0.05 |

Same assay, conditions: complete media minus cholesterol-free media + simvastatin; >0 enhanced anti-cancer activity, about 0 neutral, <0 antagonist

| Substance | Difference |
| --- | --- |
| Danofloxacin (mesylate) | 0.10 |
| Delavirdine (mesylate) | 0.08 |
| Diethylcarbamazine (citrate) | 0.02 |
| Dimenhydrinate | 0.08 |
| Econazole (nitrate) | 0.88 |
| Enalapril (maleate) | 0.19 |
| Fenticonazole (Nitrate) | 0.51 |
| Flecainide (acetate) | 0.72 |
| Flupirtine (Maleate) | 0.04 |

Same assay, conditions: complete media minus cholesterol-free media + simvastatin; […]

| Substance | Difference |
| --- | --- |
| Dabrafenib (Mesylate) | 0.21 |

Same assay, conditions: complete media vs cholesterol-free media + simvastatin (0.04 μM); >0 enhanced anti-cancer activity, about 0 neutral, <0 antagonist

| Substance | Difference |
| --- | --- |
| Deferoxamine (mesylate) | −0.43 |
| Doxazosin (mesylate) | −0.34 |
| Fenoldopam (mesylate) | −0.26 |
| Gabexate (mesylate) | −0.25 |
| Garenoxacin (Mesylate hydrate) | −0.17 |

Same assay, conditions: complete media vs cholesterol-free media + simvastatin (0.04 μM); […]

| Substance | Difference |
| --- | --- |
| Colistin (sulfate) | −0.21 |
| Edoxaban (tosylate monohydrate) | −0.22 |
